Experimental data: US20180334436A1 (VIIV HEALTHCARE UK LIMITED, priority 2015, published 2018)

The compounds below were run on HIV (assay: MT4 assay (anti-HIV activity)). Conditions: Human immunodeficiency virus 1, 96 h, antiviral HIV activity in HTLV-1 transformed cell line MT-4; luciferase read 96 hours later; 10 point dose response.
Type: cell-based
Method in brief: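 MT-4 cells infected with HIV, with inhibition readout by CellTiter-Glo luminescence at 96 h relative to no-compound control. Cytotoxicity measured in parallel under the same conditions. IC50 from a 10-point, 3-4-fold dilution series spanning >1000-fold, fitted with a four-parameter logistic equation.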

**Q.** How did the IC50 turn out when `Cc1ccc(-c2c(C)c3c(c(C)c2[C@H](OC(C)(C)C)C(=O)O)CCN(S(=O)(=O)c2cccc(F)c2)C3)cc1` [Example 57, (S)-2-(tert-butoxy)-2-(2-((3-fluorophenyl)sulfonyl)-5,8-dimethyl-7-(p-tolyl)-1,2,3,4-tetrahydroisoquinolin-6-yl)acetic Acid] was run?
**A.** 292 nM

**Q.** For `Cc1ccc(-c2c(C)c3c(c(C)c2[C@H](OC(C)(C)C)C(=O)O)CCN(S(=O)(=O)CC2CCCCC2)C3)cc1` [Example 58, (S)-2-(tert-butoxy)-2-(2-((cyclohexylmethyl)sulfonyl)-5,8-dimethyl-7-(p-tolyl)-1,2,3,4-tetrahydroisoquinolin-6-yl)acetic Acid], which IC50 is on record?
**A.** 284 nM

**Q.** How did the IC50 turn out when `Cc1ccc(-c2c(C)c3c(c(C)c2[C@H](OC(C)(C)C)C(=O)O)CCN(C2CCC4CCC2C4)C3)cc1` (stereo partly drawn) [Example 60, (2S)-2-(2-(bicyclo[3.2.1]octan-2-yl)-5,8-dimethyl-7-(p-tolyl)-1,2,3,4-tetrahydroisoquinolin-6-yl)-2-(tert-butoxy)acetic Acid] was run?
**A.** 5 nM

**Q.** Which IC50 does the source give for `Cc1ccc(-c2c(C)c3c(c(C)c2[C@H](OC(C)(C)C)C(=O)O)CCN(C2CCC2)C3)cc1` [Example 61, (S)-2-(tert-butoxy)-2-(2-cyclobutyl-5,8-dimethyl-7-(p-tolyl)-1,2,3,4-tetrahydroisoquinolin-6-yl)acetic Acid] here?
**A.** 141 nM

**Q.** For `Cc1ccc(-c2c(C)c3c(c(C)c2[C@H](OC(C)(C)C)C(=O)O)CCN(S(=O)(=O)CC(C)(C)C)C3)cc1` [Example 62, (S)-2-(tert-butoxy)-2-(5,8-dimethyl-2-(neopentylsulfonyl)-7-(p-tolyl)-1,2,3,4-tetrahydroisoquinolin-6-yl)acetic Acid], which IC50 is on record?
**A.** 11 nM

**Q.** `Cc1ccc(-c2c(C)c3c(c(C)c2[C@H](OC(C)(C)C)C(=O)O)CCN(S(=O)(=O)NC2CCCCC2)C3)cc1` [Example 63, (S)-2-(tert-butoxy)-2-(2-(N-cyclohexylsulfamoyl)-5,8-dimethyl-7-(p-tolyl)-1,2,3,4-tetrahydroisoquinolin-6-yl)acetic Acid] was tested. Which IC50 did it give?
**A.** 119 nM

**Q.** `COc1c(F)cccc1S(=O)(=O)N1CCc2c(C)c([C@H](OC(C)(C)C)C(=O)O)c(-c3ccc(C)cc3)c(C)c2C1` [Example 64, (S)-2-(tert-butoxy)-2-(2-((3-fluoro-2-methoxyphenyl)sulfonyl)-5,8-dimethyl-7-(p-tolyl)-1,2,3,4-tetrahydroisoquinolin-6-yl)acetic Acid] was tested. Which IC50 did it give?
**A.** 89 nM

**Q.** With `Cc1ccc(-c2c(C)c3c(c(C)c2[C@H](OC(C)(C)C)C(=O)O)CCN(S(=O)(=O)C2CCCC2)C3)cc1` [Example 65, (S)-2-(tert-butoxy)-2-(2-(cyclopentylsulfonyl)-5,8-dimethyl-7-(p-tolyl)-1,2,3,4-tetrahydroisoquinolin-6-yl)acetic Acid] as the compound, how does the IC50 read?
**A.** 12 nM

**Q.** How did the IC50 turn out when `Cc1ccc(-c2c(C)c3c(c(C)c2[C@H](OC(C)(C)C)C(=O)O)CCN(S(=O)(=O)C(C)C)C3)cc1` [Example 66, (S)-2-(tert-butoxy)-2-(2-(isopropylsulfonyl)-5,8-dimethyl-7-(p-tolyl)-1,2,3,4-tetrahydroisoquinolin-6-yl)acetic Acid] was run?
**A.** 48 nM

**Q.** How did the IC50 turn out when `Cc1ccc(-c2c(C)c3c(c(C)c2[C@H](OC(C)(C)C)C(=O)O)CCN(S(=O)(=O)C2CCCCCC2)C3)cc1` [Example 68, (S)-2-(tert-butoxy)-2-(2-(cycloheptylsulfonyl)-5,8-dimethyl-7-(p-tolyl)-1,2,3,4-tetrahydroisoquinolin-6-yl)acetic Acid] was run?
**A.** 50 nM

**Q.** Which IC50 does the source give for `Cc1ccc(-c2c(C)c3c(c(C)c2[C@H](OC(C)(C)C)C(=O)O)CCN(C2CCCCCCC2)C3)cc1` [Example 69, (S)-2-(tert-butoxy)-2-(2-cyclooctyl-5,8-dimethyl-7-(p-tolyl)-1,2,3,4-tetrahydroisoquinolin-6-yl)acetic Acid] here?
**A.** 6 nM

**Q.** With `Cc1ccc(-c2c(C)c3c(c(C)c2[C@H](OC(C)(C)C)C(=O)O)CCN(C(C)C2CCCCC2)C3)cc1` (stereo partly drawn) [Example 70, (2S)-2-(tert-butoxy)-2-(2-(1-cyclohexylethyl)-5,8-dimethyl-7-(p-tolyl)-1,2,3,4-tetrahydroisoquinolin-6-yl)acetic Acid] as the compound, how does the IC50 read?
**A.** 130 nM

**Q.** With `Cc1ccc(-c2c(C)c3c(c(C)c2[C@H](OC(C)(C)C)C(=O)O)CCN(C2CCC[C@@H](C)C2)C3)cc1` (stereo partly drawn) [Example 72, (2S)-2-(tert-butoxy)-2-(5,8-dimethyl-2-((3R)-3-methylcyclohexyl)-7-(p-tolyl)-1,2,3,4-tetrahydroisoquinolin-6-yl)acetic Acid] as the compound, how does the IC50 read?
**A.** 23 nM

**Q.** With `Cc1ccc(-c2c(C)c3c(c(C)c2[C@H](OC(C)(C)C)C(=O)O)CCN(C2CC[C@@H](C)C2)C3)cc1` (stereo partly drawn) [Example 73, (2S)-2-(tert-butoxy)-2-(5,8-dimethyl-2-((3R)-3-methylcyclopentyl)-7-(p-tolyl)-1,2,3,4-tetrahydroisoquinolin-6-yl)acetic Acid] as the compound, how does the IC50 read?
**A.** 42 nM

**Q.** Which IC50 does the source give for `Cc1ccc(-c2c(C)c3c(c(C)c2[C@H](OC(C)(C)C)C(=O)O)CCN(C2CC4CCC(C4)C2)C3)cc1` (stereo partly drawn) [Example 74, (2S)-2-(2-(bicyclo[3.2.1]octan-3-yl)-5,8-dimethyl-7-(p-tolyl)-1,2,3,4-tetrahydroisoquinolin-6-yl)-2-(tert-butoxy)acetic Acid] here?
**A.** 12 nM

**Q.** `Cc1ccc(-c2c(C)c3c(c(C)c2[C@H](OC(C)(C)C)C(=O)O)CCN(C(=O)C2CCCCCC2)C3)cc1` [Example 75, (S)-2-(tert-butoxy)-2-(2-(cycloheptanecarbonyl)-5,8-dimethyl-7-(p-tolyl)-1,2,3,4-tetrahydroisoquinolin-6-yl)acetic Acid] was tested. Which IC50 did it give?
**A.** 51 nM

**Q.** `Cc1ccc(-c2c(C)c3c(c(C)c2[C@H](OC(C)(C)C)C(=O)O)CCN(C(=O)C2(C)CCCCC2)C3)cc1` [Example 76, (S)-2-(tert-butoxy)-2-(5,8-dimethyl-2-(1-methylcyclohexanecarbonyl)-7-(p-tolyl)-1,2,3,4-tetrahydroisoquinolin-6-yl)acetic Acid] was tested. Which IC50 did it give?
**A.** 41 nM

**Q.** Which IC50 does the source give for `Cc1ccc(-c2c(C)c3c(c(C)c2[C@H](OC(C)(C)C)C(=O)O)CCN(C2CCc4ccccc4C2)C3)cc1` (stereo partly drawn) [Example 77, (2S)-2-(tert-butoxy)-2-(5,8-dimethyl-2-(1,2,3,4-tetrahydronaphthalen-2-yl)-7-(p-tolyl)-1,2,3,4-tetrahydroisoquinolin-6-yl)acetic Acid] here?
**A.** 40 nM

**Q.** `Cc1ccc(-c2c(C)c3c(c(C)c2[C@H](OC(C)(C)C)C(=O)O)CCN(C(=O)C2CCc4ccccc4C2)C3)cc1` (stereo partly drawn) [Example 78, (2S)-2-(tert-butoxy)-2-(5,8-dimethyl-2-(1,2,3,4-tetrahydronaphthalene-2-carbonyl)-7-(p-tolyl)-1,2,3,4-tetrahydroisoquinolin-6-yl)acetic Acid] was tested. Which IC50 did it give?
**A.** 109 nM

**Q.** How did the IC50 turn out when `Cc1c(-c2c(C)c3c(c(C)c2[C@H](OC(C)(C)C)C(=O)O)CCN(C(=O)C2CCCCC2)C3)cc(F)c2c1CCCO2` [Example 79, (S)-2-(tert-Butoxy)-2-((R)-2-(cyclohexanecarbonyl)-7-(8-fluoro-5-methylchroman-6-yl)-5,8-dimethyl-1,2,3,4-tetrahydroisoquinolin-6-yl)acetic Acid] was run?
**A.** 35 nM

**Q.** Which IC50 does the source give for `Cc1c(-c2c(C)c3c(c(C)c2[C@H](OC(C)(C)C)C(=O)O)CCN(S(=O)(=O)C2CCCCC2)C3)cc(F)c2c1CCCO2` [Example 80, (S)-2-(tert-Butoxy)-2-((R)-2-(cyclohexylsulfonyl)-7-(8-fluoro-5-methylchroman-6-yl)-5,8-dimethyl-1,2,3,4-tetrahydroisoquinolin-6-yl)acetic Acid] here?
**A.** 13 nM

**Q.** Which IC50 does the source give for `Cc1c(-c2c(C)c3c(c(C)c2[C@H](OC(C)(C)C)C(=O)O)CCN(C2CCC(C)(C)CC2)C3)cc(F)c2c1CCCO2` [Example 81, (S)-2-(tert-Butoxy)-2-((R)-2-(4,4-dimethylcyclohexyl)-7-(8-fluoro-5-methylchroman-6-yl)-5,8-dimethyl-1,2,3,4-tetrahydroisoquinolin-6-yl)acetic Acid] here?
**A.** 4 nM

**Q.** With `COc1c(F)cccc1C(=O)N1CCc2c(C)c([C@H](OC(C)(C)C)C(=O)O)c(-c3cc(F)c4c(c3C)CCCO4)c(C)c2C1` [Example 82, (S)-2-(tert-Butoxy)-2-((R)-2-(3-fluoro-2-methoxybenzoyl)-7-(8-fluoro-5-methylchroman-6-yl)-5,8-dimethyl-1,2,3,4-tetrahydroisoquinolin-6-yl)acetic Acid] as the compound, how does the IC50 read?
**A.** 20 nM

**Q.** With `Cc1c(-c2c(C)c3c(c(C)c2[C@H](OC(C)(C)C)C(=O)O)CCN(CC2CCCCC2)C3)cc(F)c2c1CCCO2` [Example 85, (S)-2-(tert-Butoxy)-2-((R)-2-(cyclohexylmethyl)-7-(8-fluoro-5-methylchroman-6-yl)-5,8-dimethyl-1,2,3,4-tetrahydroisoquinolin-6-yl)acetic Acid] as the compound, how does the IC50 read?
**A.** 14 nM

**Q.** How did the IC50 turn out when `Cc1c2c(c(C)c([C@H](OC(C)(C)C)C(=O)O)c1-c1ccc(Cl)cc1)CCN(S(=O)(=O)C1CCCCC1)C2` [Example 86, (S)-2-(tert-butoxy)-2-(7-(4-chlorophenyl)-2-(cyclohexylsulfonyl)-5,8-dimethyl-1,2,3,4-tetrahydroisoquinolin-6-yl)acetic Acid] was run?
**A.** 38 nM

**Q.** `Cc1c2c(c(C)c([C@H](OC(C)(C)C)C(=O)O)c1-c1ccc(Cl)cc1)CCN(C1CCCCC1)C2` [Example 87, (S)-2-(tert-butoxy)-2-(7-(4-chlorophenyl)-2-cyclohexyl-5,8-dimethyl-1,2,3,4-tetrahydroisoquinolin-6-yl)acetic Acid] was tested. Which IC50 did it give?
**A.** 15 nM

**Q.** For `Cc1c(-c2c(C)c3c(c(C)c2[C@H](OC(C)(C)C)C(=O)O)CCN(Cc2ccccc2)C3)cc(F)c2c1CCCO2` [Example 90, (S)-2-((R)-2-Benzyl-7-(8-fluoro-5-methylchroman-6-yl)-5,8-dimethyl-1,2,3,4-tetrahydroisoquinolin-6-yl)-2-(tert-butoxy)acetic Acid], which IC50 is on record?
**A.** 67 nM

**Q.** How did the IC50 turn out when `Cc1c(-c2c(C)c3c(c(C)c2[C@H](OC(C)(C)C)C(=O)O)CCN(C(=O)c2ccccc2)C3)cc(F)c2c1CCCO2` [Example 91, (S)-2-((R)-2-Benzoyl-7-(8-fluoro-5-methylchroman-6-yl)-5,8-dimethyl-1,2,3,4-tetrahydroisoquinolin-6-yl)-2-(tert-butoxy)acetic Acid] was run?
**A.** 48 nM
